Laboratory results published in US20250339425A1 (Northeastern University, priority 2024, published 2025).

Columns and labels:
human α7 nAChR = human α7 nAChR (Homo sapiens, UniProt P36544); conditions: Table 1
[1] = In vitro metabolic stability in pooled human liver microsomes
[2] = tested on: locomotor activity of mice; experiment: Locomotor activity of mice (photocell activity cages); type: in vivo, mouse; conditions: 10 mg/kg, compared to vehicle-treated animals
Procedure: Mechanical thresholds were elevated by treatments with II (FIGS. 5A-5D). […] Therefore, the data in FIGS. 5A-5D are the mean±SD scores for each condition. Statistical analysis was conducted using a Kruskal-Wallis test followed by Mann-Whitney rank sum test at each time point following II treatment.
Interruptions of the photocell beams (two banks of eight cells each) were then recorded for the next 60 min. Data are expressed as number of photocell interruptions.

[3] = In vitro metabolic stability in rat hepatocytes
[4] = tested on: CFA-induced inflammatory pain in mice; conditions: mouse, in vivo
Procedure: Experiments were conducted using adult (10-15 weeks) male and female C57BL/6J mice from Jackson Laboratory (Bar Harbor ME, USA): α7 WT and KO mice on a C57BL/6J background. Mice null for the α7 subunit along with their WT littermates were initially procured from Jackson Laboratory and later bred in an approved animal care facility at Virginia Commonwealth University. The breeding scheme involved crossing heterozygous mice and backcrossing progeny for at least 12 to 15 generations, to control for irregularities that might occur crossing solely mutant animals, to generate both mutant and WT animals. […] Then mice were retrieved from the vivarium and housed (4-5 mice per cage) for the duration of the study in a temperature- and humidity-controlled out-of-vivarium space on the same light/dark cycle. They were given ad libitum food and water. All experiments were performed during the light cycle.
Mice were injected intraplantarly with 20 μl of CFA (50%, diluted in mineral oil; Sigma-Aldrich). Mechanical sensitivity (see the measurement of the von Frey test) was measured before and 3 days after CFA injection.
The mechanical threshold was expressed as log 10 of 10× force (in milligrams), indicating the force of the von Frey hair to which the animal reacted (paw withdrawn, licking, or shaking). All behavioral testing on animals was performed in a blinded manner.

[5] = tested on: CFA-induced paw edema in mice; experiment: CFA-induced paw edema in mice; type: in vivo, mouse; conditions: CFA-treated mice; 10 mg/kg differing from vehicle
α9 nAChR = α9 nAChR (Homo sapiens, UniProt Q9UGM1)
Sequence of α9 nAChR (Q9UGM1 26-479 limits assumed): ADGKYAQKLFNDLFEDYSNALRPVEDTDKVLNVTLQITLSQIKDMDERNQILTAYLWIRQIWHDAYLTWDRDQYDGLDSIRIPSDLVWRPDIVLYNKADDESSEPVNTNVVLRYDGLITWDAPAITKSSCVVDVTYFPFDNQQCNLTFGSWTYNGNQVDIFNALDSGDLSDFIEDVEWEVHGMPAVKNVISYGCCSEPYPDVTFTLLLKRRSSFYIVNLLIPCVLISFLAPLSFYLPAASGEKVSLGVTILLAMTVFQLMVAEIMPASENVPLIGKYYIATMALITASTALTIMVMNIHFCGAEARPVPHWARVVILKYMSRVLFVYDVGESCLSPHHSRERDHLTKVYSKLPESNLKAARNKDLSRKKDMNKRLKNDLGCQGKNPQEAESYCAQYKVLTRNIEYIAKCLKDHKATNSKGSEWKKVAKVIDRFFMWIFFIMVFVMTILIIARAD

[6] = tested on: CFA-induced inflammatory pain in mice; conditions: previously reported α9 nAChR agonist; cited from earlier work

Sequence of human α7 nAChR (P36544 23-502): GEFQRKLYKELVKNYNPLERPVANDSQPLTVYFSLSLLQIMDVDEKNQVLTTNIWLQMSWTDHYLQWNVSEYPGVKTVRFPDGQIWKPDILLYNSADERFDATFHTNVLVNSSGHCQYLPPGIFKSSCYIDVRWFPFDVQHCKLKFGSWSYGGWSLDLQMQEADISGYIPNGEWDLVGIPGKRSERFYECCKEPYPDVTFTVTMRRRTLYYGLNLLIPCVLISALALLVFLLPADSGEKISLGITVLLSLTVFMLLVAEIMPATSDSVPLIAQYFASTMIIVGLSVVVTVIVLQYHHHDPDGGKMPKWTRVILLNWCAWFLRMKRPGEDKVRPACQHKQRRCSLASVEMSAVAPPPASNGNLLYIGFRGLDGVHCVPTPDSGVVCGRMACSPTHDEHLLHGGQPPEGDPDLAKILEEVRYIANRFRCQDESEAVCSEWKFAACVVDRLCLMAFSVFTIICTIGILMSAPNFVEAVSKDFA

CC[N+]1(C)CCN(c2ccc(NC(=O)c3cccc(C)n3)cc2)CC1 [Compound II, 1-Ethyl-1-methyl-4-(4-(6-methylpicolinamido)phenyl)piperazin-1-ium iodide]
plasma protein binding (Plasma protein binding): 54%
α7 Imax (human α7 nAChR; net charge, relative to ACh maximum): 0.41 ± 0.025
EC50 (human α7 nAChR; read-out: α7 EC50, unit inferred): 78.3 ± 11.3 µM
clearance [1]: low clearance
locomotor activity [2]: did not significantly alter locomotor activity
clearance [3]: low clearance
mechanical thresholds at the 72 h time point [4]: no significant effects
paw edema [5]: significantly reduced paw edema
type of activity at α9 / α9* nAChR (α9 nAChR): full agonist
α9 Imax (α9 nAChR; Table 1, peak current, relative to ACh maximum): 1.01 ± 0.03
EC50 (α9 nAChR; read-out: α9 EC50, Table 1, unit not given (0.23 as 230 nM)): 0.23 ± 0.034 µM

CC[N+]1(CC)CCN(c2ccc(C#N)cc2)CC1 [pCN-diEPP]
effective duration against CFA-induced pain like behaviors [6]: 3 to 6 h
